Data published in PMC8997165, “Transcriptional CDK Inhibitors as Potential Treatment Option for Testicular Germ Cell Tumors” (Cancers, 2022).

Experiments:
Assay type in all cases: cell-based, human
MPAF cells = test: XTT cell viability assay, MPAF fibroblast control; details: XTT viability
Experimental: (§1) The following cell lines were used 2102EP, 2102EP-R, NCCIT, NCCIT-R (all ECs), TCam2 (seminoma cell line), FS1 (Sertoli cell line) and MPAF (human adult fibroblast cell line). Cells were cultivated as described previously. In brief, the ECs were cultivated in Dulbecco’s modified Eagle’s medium (DMEM) supplemented with 10% fetal bovine serum (FBS), 1% penicillin–streptomycin and […] L-glutamine. FS1 cells were grown in DMEM supplemented with 20% FSB, 1% penicillin–streptomycin, 200 mM L-glutamine and 1% nonessential amino acids (NEAA). MPAF cells were cultured in DMEM supplemented with 10% FBS, 1% penicillin–streptomycin, 200 mM L-glutamine and 1% NEAA. TCam2 cell line was cultured in RPMI medium supplemented with 10% FBS, 1% penicillin–streptomycin and […] L-glutamine. All cell lines were kept at 37 °C and 7.5% CO2. 2102EP and NCCIT were a kind gift from Prof. Dr. L. Looijenga (Princess Máxima Center for Pediatric Oncology, Utrecht, The Netherlands). Cisplatin-resistant lines 2102EP-R and NCCIT-R were obtained from PD Dr. F. Honecker (Breast and Tumor Center, ZeTup Silberturm, St. Gallen, Switzerland). MPAFs were a kind gift from […] (Bonn University, Institute of Reconstructive Neurobiology, Bonn, Germany). FS1 cells were obtained from Prof. Dr. V. Schumacher (Boston Children’s Hospital, Department of Urology; Harvard Medical School, Department of Surgery, Boston, MA, USA).
(§2) The assay was performed based on the reduction in XTT tetrazolium salt as described previously. In summary, 3000 cells were seeded per well of a 96-well cell culture plate in 100 µL of cell culture medium. The next day, cells were treated with CDK inhibitor or CDK degrader for 24/48/72 h. For XTT assay, 0.6 mg/mL XTT sodium salt was dissolved in cell culture medium (DMEM or RPMI) and supplemented with 25 µM electron carrier N-methyl dibenzopyrazine methyl sulfate (PMS). A total of 50 µL of XTT/PMS was added to each well and incubated for 4 h at 37 °C, 7.5% CO2. For readout, absorption was measured at 450 nm and 650 nm. Specific XTT signal (450 nm) was subtracted by nonspecific absorbance (650) and blank (cell culture medium). Averages of technical triplicates were calculated, and treated sample was referenced to the corresponding dimethyl sufoxide (DMSO) control. Experiment was repeated several times to obtain biological replicates. For statistical analysis, two-tailed Student’s t-test was applied.

2102EP-R cells = test: XTT cell viability assay, 2102EP-R (cisplatin-resistant)
Experimental: as §1, §2

TGCT cell lines = test: XTT cell viability assay, summarised over TGCT tumor cell lines; details: TGCT cell lines and FS1 cell line, 10 nM
Experimental: as §1, §2

TCam2 cells = test: XTT cell viability assay, TCam2
Experimental: as §1, §2

NCCIT-R cells = test: XTT cell viability assay, NCCIT-R (cisplatin-resistant)
Experimental: as §1, §2

NCCIT cells = test: XTT cell viability assay, NCCIT
Experimental: as §1, §2

2102EP and NCCIT cells = test: 7AAD/AnnexinV FACS apoptosis analysis, 2102EP and NCCIT; details: 10 nM, 24 and 48 h
Experimental: (§3) Cells were seeded in 6-well cell culture plates (1.5 × 10^5 cells/well). […] For cell cycle analysis, cells were harvested after 20 h of treatment and resuspended in PBS. Ice-cold methanol was added dropwise while shaking until 70% methanol v/v was reached. Cells were incubated for 2 h at 4 °C and subsequently washed twice with cold PBS. Staining (2 µg/mL Hoechst-33342, 50 µg/mL RNaseA in PBS) was performed for 30 min at 37 °C. The cell cycle distribution was measured in an FACS Canto (BD BioSciences, Heidelberg, Germany) and analyzed using FlowJo™ v10.8 Software (BD BioSciences, Heidelberg, Germany). For apoptosis analysis, PE AnnexinV Apoptosis Detection Kit with 7-AAD (BioLegend, San Diego, CA USA) was used according to the manufacturer’s manual. Measurement was performed in an FACS Canto while analysis was performed in the corresponding BD FACSDiva software^TM (BD BioSciences, Heidelberg, Germany). Two-tailed Student’s t-test was applied for calculation of significance.

FS1 cells = test: XTT cell viability assay, FS1 Sertoli control
Experimental: as §1, §2

2102EP cells = test: XTT cell viability assay, 2102EP
Experimental: as §1, §2

[1] = tested on: TGCT and control cell lines; test: Hoechst-FACS cell cycle analysis; details: 20 h; NVP2 and SY0351 10 nM, YKL-5-124 and THZ531 100 nM
Experimental: as §3

[2] = tested on: TCam2, FS1 and MPAF cells; test: 7AAD/AnnexinV FACS apoptosis analysis, TCam2, FS1 and MPAF; details: 10 nM, 24 and 48 h
Experimental: as §3

In the case of `COC[C@@H](C)N[C@H]1CC[C@H](Nc2cc(-c3cccc(NCC4(C#N)CCOCC4)n3)c(Cl)cn2)CC1` [NVP2], the IC50 (MPAF cells; 24 h) is reported as greater than 1000 nM, the IC50 (MPAF cells; 48 h) is reported as greater than 1000 nM and the IC50 (MPAF cells; 72 h) is reported as greater than 1000 nM. The IC50 (2102EP-R cells; 24 h) was 884 nM, the IC50 (2102EP-R cells; 48 h) was 11.2 nM and the IC50 (2102EP-R cells; 72 h) was 8.6 nM. For the same compound, the “viability (XTT)” value (TGCT cell lines) was “effectively reduced the viability”, the IC50 (TCam2 cells; TCam2, 24 h) was 216 nM and the IC50 (TCam2 cells; TCam2, 48 h) was 60 nM. It also gave an IC50 (TCam2 cells; TCam2, 72 h) of 16.1 nM, an IC50 (NCCIT-R cells; 24 h) of 104 nM and an IC50 (NCCIT-R cells; 48 h) of 17.1 nM. It also gave an IC50 (NCCIT-R cells; 72 h) of 12.2 nM, an IC50 (NCCIT cells; 24 h) of 90.6 nM and an IC50 (NCCIT cells; 48 h) of 40.7 nM. The IC50 (NCCIT cells; 72 h) was 6.5 nM, the “apoptosis, fold compared to the control” value (2102EP and NCCIT cells) was “up to 5.5 fold” and the IC50 (FS1 cells; FS1, 24 h) was 98.2 nM. It also gave an IC50 (FS1 cells; FS1, 48 h) of 33.5 nM, an IC50 (FS1 cells; FS1, 72 h) of 8.9 nM and an IC50 (2102EP cells; 24 h) of 503 nM. The IC50 (2102EP cells; 48 h) was 10.5 nM, the IC50 (2102EP cells; 72 h) was 6.1 nM and the “effect on cell cycle” value [1] was “only mild effects on the cell cycle”. For the same compound, the “fold change in apoptotic cells” value [2] was “up to 3.3 fold”.
